Target: T1, Egghead β1-4-mannosyltransferase (Drosophila melanogaster, UniProt O01346)
T1 construct: a secreted version of egghead was prepared as described for the full length construct; made in house; host or cells: baculovirus-infected Sf9 and High Five insect cells (microsomal fractions)
T1 sequence (O01346 1-457): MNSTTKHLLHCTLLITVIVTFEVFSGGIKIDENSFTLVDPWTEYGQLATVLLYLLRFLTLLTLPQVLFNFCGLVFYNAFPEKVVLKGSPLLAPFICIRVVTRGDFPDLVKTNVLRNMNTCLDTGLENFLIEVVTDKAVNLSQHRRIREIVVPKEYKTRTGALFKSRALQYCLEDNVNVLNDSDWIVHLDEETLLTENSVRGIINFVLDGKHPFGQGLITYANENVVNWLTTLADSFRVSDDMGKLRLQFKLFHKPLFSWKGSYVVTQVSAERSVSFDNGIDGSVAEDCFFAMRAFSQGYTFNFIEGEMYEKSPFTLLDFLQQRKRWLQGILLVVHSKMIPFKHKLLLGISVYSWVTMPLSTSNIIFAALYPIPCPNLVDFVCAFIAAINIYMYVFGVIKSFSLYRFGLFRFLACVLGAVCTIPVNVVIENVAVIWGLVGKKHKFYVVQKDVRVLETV
Assay: Egghead transfer of Man to glycosphingolipid acceptors (thin-layer chromatography/autoradiography)
Format: biochemical
Details: GDP-Man donor; microsomal fraction; 4 h
Procedure: Microsomal fraction of egghead (Egh) and GalNAc-T4 (GT4) were incubated with Glcβ1-1Cer, LacCer, or no glycolipid and GDP-Man as described in Experimental Procedures. Autoradiography of thin-layer chromatography of reaction products (4 h). Plate was run in chloroform-methanol-water (60/38/10, v/v/v). Migration of standard glycolipids is indicated with arrows.
Glycosphingolipids of the fruit fly are based on the arthroseries GlcNAcβ1-3Manβ1-4Glcβ1-1 Cer core. […] Evidence in support hereof was provided by showing that brainiac utilizes the product formed by egghead (FIG. 5). This assay was carried out with n-octyl-β-Glc as initial acceptor substrate because it served as a better substrate than GlcCer under the assay conditions used.
An expression construct of the full coding region of egghead was prepared by RT-PCR using D. melanogaster mRNA and the sense primer Egh001 (5′-[…]-3′, SEQ ID NO: 4) with a BglII restriction site and the anti-sense primer Egh002 (5′-[…]-3′, SEQ ID NO: 5) with a XbaI restriction site. The resulting 1.1 Kb fragment was cloned into the BglII/XbaI sites of pVL1393 (PharMingen) and pVL1393-MYC. Furthermore an expression construct for a secreted version of egghead was prepared as described for the full length construct but using sense primer Egh003 (5′[…]-3′, SEQ ID NO: 6) with a BglII restriction site and the anti-sense primer Egh002. The resulting 1 Kb fragment was cloned into pAcGP67 Baculo-virus expression vector. Expression constructs pVL-egghead-full and pVL-egghead-Myc-full and pAcGP67-egghead-sol were co-transfected with Baculo-Gold™ DNA (Pharmingen) in Sf9 cells as described (12). […] Pellets were used at 10 mg/ml (Protein concentration determined by BCA, Pierce). Reaction products of soluble acceptors were quantified by chromatography on Dowex AG1-X8 (Sigma). Assays with glycosphingolipids included 5 mM 2-Acetamido-2-deoxy-D-Glucono-1,5-lactone (inhibitor of hexosaminidase activity), and products were purified on octadecyl-silica cartridges (Supelco) and analyzed by high performance thin-layer chromatography followed by autoradiography.

| glycosphingolipid as acceptor substrate of egghead (in words) | Substance |
| --- | --- |
| does not serve as substrate | Galβ1-4Glcβ1-Cer [LacCer] |
| not to serve as a substrate | Galβ1-1Cer |
| utilizes | Glcβ1-1Cer |
